Where a SMILES comes first, the peptide text is derived from it. Bridges are numbered along the chain shown (N, C = ends). [ ]: non-standard residue; d: D form. Tle = CC(C)(C)[C@H](N)C(=O)O; Nle = CCCC[C@H](N)C(=O)O; Dab = NCC[C@H](N)C(=O)O; Dap = NC[C@H](N)C(=O)O; Aib = CC(C)(N)C(=O)O
Assays:
Format in all cases: cell-based
[1] = system: human red blood cells (hRBC); experiment: Hemolysis of human red blood cells; conditions: red cells of human, 1 h, 100 μg/mL
Method in brief: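 Each peptide was tested at a single concentration, 100 μg/mL. Erythrocytes (20% v/v) were incubated 1 h at 37° C. under shaking at 300 rpm, centrifuged, and released hemoglobin measured at OD540. Controls were PBS containing 0.001% acetic acid (0%) and Triton X-100 (100%).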

[2] = system: Klebsiella pneumoniae 968733; conditions: 968733
[3] = system: Pseudomonas aeruginosa ATCC 27853; conditions: ATCC 27853
Method in brief: (§1)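 CLSI broth microdilution; MH-II (cation-adjusted) + 0.002% P-80; ~10^6 CFU/mL inoculum; peptide two-fold serial dilutions; 18-20 h, 35° C; MIC = no visible growth, μg/mL.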

Escherichia coli 926415 = conditions: 926415
[4] = system: Klebsiella pneumoniae SSI #3010; conditions: SSI #3010
Method in brief: as §1

[5] = system: Acinetobacter baumannii DSM 30008; conditions: DSM 30008
Method in brief: as §1

[6] = system: Escherichia coli ATCC 25922; conditions: ATCC 25922
Method in brief: as §1

[7] = system: Acinetobacter baumannii 872842; conditions: 872842

| Structure (SMILES) | Hemolysis at 100 μg/mL [1] [%] | Klebsiella pneumoniae 968733 MIC [2] [µg/mL] | Pseudomonas aeruginosa ATCC 27853 MIC [3] [µg/mL] | Escherichia coli 926415 MIC (Escherichia coli 926415) [µg/mL] | Klebsiella pneumoniae SSI #3010 MIC [4] [µg/mL] | Acinetobacter baumannii DSM 30008 MIC [5] [µg/mL] | Escherichia coli ATCC 25922 MIC [6] [µg/mL] | Acinetobacter baumannii 872842 MIC [7] [µg/mL] |
| --- | --- | --- | --- | --- | --- | --- | --- | --- |
| CCCC[C@@H]1NC(=O)[C@@H]2CCCN2C(=O)[C@H]2CCCN2C(=O)[C@H](CO)NC(=O)[C@H](C)NC(=O)[C@H](C(C)(C)C)NC(=O)[C@@H](NC(=O)[C@H](Cc2c[nH]c3ccccc23)NC(C)=O)CSSC[C@@H](C(=O)N[C@@H](CCN)C(=O)NC(C)(C)C(=O)N[C@@H](CCN)C(=O)N[C@H]2CCNC(=O)[C@H]([C@@H](C)O)NC(=O)[C@H](CCN)NC(=O)[C@H](CCN)NC(=O)[C@H](CC(C)C)NC(=O)[C@@H](Cc3ccccc3)NC(=O)[C@H](CCN)NC2=O)NC(=O)[C@H](Cc2ccc(O)cc2)NC(=O)[C@H](CO)NC1=O [Ex. 23] (Ac-WC[Tle]AS[dP]P[Nle]SYC[Dab][Aib][Dab][Dab][Dab][dF]L[Dab][Dab]T; disulfide 2-11; lactam 15-C) | 1 | 2 | 0.5 | 0.5 | 0.25 | 0.5 | 0.25 | 0.5 |
| CCCC[C@@H]1NC(=O)[C@@H]2CCCN2C(=O)[C@H]2CCCN2C(=O)[C@H](CO)NC(=O)[C@H](C)NC(=O)[C@H](C(C)(C)C)NC(=O)[C@@H](NC(=O)[C@H](Cc2c[nH]c3ccccc23)NC(C)=O)CSSC[C@@H](C(=O)N[C@@H](CCN)C(=O)N[C@H](C(=O)N[C@@H](CCN)C(=O)N[C@H]2CCNC(=O)[C@H]([C@@H](C)O)NC(=O)[C@H](CNC(=O)[C@@H](N)CCC(=O)O)NC(=O)[C@H](CCN)NC(=O)[C@H](CC(C)C)NC(=O)[C@@H](Cc3ccccc3)NC(=O)[C@H](CCN)NC2=O)[C@@H](C)O)NC(=O)[C@H](Cc2ccc(O)cc2)NC(=O)[C@H](CO)NC1=O [Ex. 25] (Ac-WC[Tle]AS[dP]P[Nle]SYC[Dab]T[Dab][Dab][Dab][dF]L[Dab][Dap](Glu)T; disulfide 2-11; lactam 15-C) | 3 | 8 | 4 | 3 | 4 | 1 | 2 | 1 |
| CCCC[C@@H]1NC(=O)[C@@H]2CCCN2C(=O)[C@H]2CCCN2C(=O)[C@H](CO)NC(=O)[C@H](C)NC(=O)[C@H](C(C)(C)C)NC(=O)[C@@H](NC(=O)[C@H](Cc2c[nH]c3ccccc23)NC(C)=O)CSSC[C@@H](C(=O)NCC(=O)N[C@@H](CCN)C(=O)N[C@H](C(=O)N[C@@H](CCN)C(=O)N[C@H]2CCNC(=O)[C@H]([C@@H](C)O)NC(=O)[C@H](CCN)NC(=O)[C@H](CCN)NC(=O)[C@H](CC(C)C)NC(=O)[C@@H](Cc3ccccc3)NC(=O)[C@H](CCN)NC2=O)[C@@H](C)O)NC(=O)[C@H](Cc2ccc(O)cc2)NC(=O)[C@H](CO)NC1=O [Ex. 26] (Ac-WC[Tle]AS[dP]P[Nle]SYCG[Dab]T[Dab][Dab][Dab][dF]L[Dab][Dab]T; disulfide 2-11; lactam 16-C) | <1 | 0.5 | 0.25 | 0.25 | 0.25 | 0.5 | 0.0625 | 0.125 |

Reference: patent US10829520B2, “Beta-hairpin peptidomimetics” (POLYPHOR AG, priority 2015, dated 2020)
